Source: ChEMBL document CHEMBL4304804, “Synthesis and biological evaluation of calycanthaceous alkaloid analogs” (Bioorg Med Chem, 2019)
Values after ≈ are worked out from the molar mass of the structure shown. Active and inactive are the calls of the source. The rule behind the calls is not given here.

Key:
[1] = system: Aspergillus flavus; assay: Antifungal activity against Aspergillus flavus assessed as reduction in fungal cell growth incubated for 48 hrs by serial dilution method; assay type: functional
[2] = system: Aspergillus niger; assay: Antifungal activity against Aspergillus niger assessed as reduction in fungal cell growth incubated for 48 hrs by serial dilution method; assay type: functional
[3] = system: Cytospora; assay: Antifungal activity against Cytospora juglandis assessed as reduction in fungal cell growth incubated for 48 hrs by serial dilution method; assay type: functional
[4] = system: Candida tropicalis; assay: Antifungal activity against Candida tropicalis assessed as reduction in fungal cell growth incubated for 48 hrs by serial dilution method; assay type: functional
[5] = system: Curvularia lunata; assay: Antifungal activity against Curvularia lunata assessed as reduction in fungal cell growth incubated for 48 hrs by serial dilution method; assay type: functional
[6] = system: Candida; assay: Antifungal activity against […] assessed as reduction in fungal cell growth incubated for 48 hrs by serial dilution method; assay type: functional
[7] = system: Pseudomonas aeruginosa; assay: Antibacterial activity against Pseudomonas aeruginosa assessed as reduction in bacterial cell growth incubated for 24 hrs by filter paper assay; assay type: functional
[8] = system: Colletotrichum orbiculare; assay: Antifungal activity against Colletotrichum orbiculare assessed as reduction in fungal cell growth incubated for 48 hrs by serial dilution method; assay type: functional
[9] = system: Penicillium citrinum; assay: Antifungal activity against Penicillium citrinum assessed as reduction in fungal cell growth incubated for 48 hrs by serial dilution method; assay type: functional
[10] = target: Acetylcholinesterase (Electrophorus electricus, UniProt O42275); assay: Inhibition of electric eel AChE by Ellman's colorimetry
Chain of Acetylcholinesterase (O42275 whole entry): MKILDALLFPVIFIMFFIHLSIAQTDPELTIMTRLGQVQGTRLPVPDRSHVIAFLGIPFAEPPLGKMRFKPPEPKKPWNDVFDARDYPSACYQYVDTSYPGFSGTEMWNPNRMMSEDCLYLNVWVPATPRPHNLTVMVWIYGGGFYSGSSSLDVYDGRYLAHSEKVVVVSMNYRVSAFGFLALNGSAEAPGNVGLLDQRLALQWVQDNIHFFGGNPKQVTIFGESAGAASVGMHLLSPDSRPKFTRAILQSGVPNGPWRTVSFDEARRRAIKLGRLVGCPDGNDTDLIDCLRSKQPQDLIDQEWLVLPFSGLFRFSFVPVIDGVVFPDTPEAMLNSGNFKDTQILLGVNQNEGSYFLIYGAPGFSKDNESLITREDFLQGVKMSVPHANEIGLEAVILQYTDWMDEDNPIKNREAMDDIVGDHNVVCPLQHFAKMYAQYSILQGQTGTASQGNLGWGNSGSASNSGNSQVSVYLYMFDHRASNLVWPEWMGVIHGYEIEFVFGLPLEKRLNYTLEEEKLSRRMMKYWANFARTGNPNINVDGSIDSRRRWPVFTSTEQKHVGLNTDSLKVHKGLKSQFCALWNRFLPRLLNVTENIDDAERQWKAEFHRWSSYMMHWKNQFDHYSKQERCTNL

[11] = system: Fusarium oxysporum f. sp. vasinfectum; assay: Antifungal activity against Fusarium oxysporum sp. vasinfectum assessed as reduction in fungal cell growth incubated for 48 hrs by serial dilution method; assay type: functional
[12] = target: Acetylcholinesterase (Electrophorus electricus) (UniProt O42275); assay: Inhibition of electric eel AChE by at 1 mg/ml Ellman's colorimetry relative to control
Chain of Acetylcholinesterase (Electrophorus electricus) (O42275 24-633 limits assumed): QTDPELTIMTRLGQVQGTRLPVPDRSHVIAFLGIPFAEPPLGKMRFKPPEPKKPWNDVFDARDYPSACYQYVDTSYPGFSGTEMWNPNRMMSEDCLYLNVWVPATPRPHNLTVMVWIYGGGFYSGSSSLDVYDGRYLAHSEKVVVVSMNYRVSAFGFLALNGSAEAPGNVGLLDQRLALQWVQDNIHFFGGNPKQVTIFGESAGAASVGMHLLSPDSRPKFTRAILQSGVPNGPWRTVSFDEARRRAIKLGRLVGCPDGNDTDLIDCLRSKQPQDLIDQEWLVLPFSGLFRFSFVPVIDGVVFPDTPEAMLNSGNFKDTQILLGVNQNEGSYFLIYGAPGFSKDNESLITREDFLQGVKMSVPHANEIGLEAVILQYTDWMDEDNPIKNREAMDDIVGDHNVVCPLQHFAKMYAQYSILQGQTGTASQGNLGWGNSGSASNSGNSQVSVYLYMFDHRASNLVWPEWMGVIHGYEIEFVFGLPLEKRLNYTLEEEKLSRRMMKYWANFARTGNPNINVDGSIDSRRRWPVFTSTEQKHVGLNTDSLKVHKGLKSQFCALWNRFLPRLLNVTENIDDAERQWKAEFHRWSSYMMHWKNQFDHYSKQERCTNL

[13] = system: Fusarium oxysporum; assay: Antifungal activity against Fusarium oxysporum assessed as reduction in fungal cell growth incubated for 48 hrs by serial dilution method; assay type: functional
[14] = system: Escherichia coli; assay: Antibacterial activity against Escherichia coli assessed as reduction in bacterial cell growth incubated for 24 hrs by filter paper assay; assay type: functional
[15] = system: Cryptococcus neoformans; assay: Antifungal activity against Cryptococcus neoformans assessed as reduction in fungal cell growth incubated for 48 hrs by serial dilution method; assay type: functional
[16] = system: Bacillus cereus; assay: Antibacterial activity against Bacillus cereus assessed as reduction in bacterial cell growth incubated for 24 hrs by filter paper assay; assay type: functional
[17] = system: Staphylococcus aureus; assay: Antibacterial activity against Staphylococcus aureus assessed as reduction in bacterial cell growth incubated for 24 hrs by filter paper assay; assay type: functional
[18] = system: Verticillium dahliae; assay: Antifungal activity against Verticillium dahliae assessed as reduction in fungal cell growth incubated for 48 hrs by serial dilution method; assay type: functional
[19] = system: Ralstonia solanacearum; assay: Antibacterial activity against Ralstonia solanacearum assessed as reduction in bacterial cell growth incubated for 24 hrs by filter paper assay; assay type: functional

`Cc1ccc(S(=O)(=O)N2CCC3(Cc4ccccc4C)c4ccccc4N(Cc4ccccc4C)C23)cc1` (configuration not stated) gave an MIC [1] of 250 µg/mL (≈ 478 µM), an MIC [2] of 250 µg/mL (≈ 478 µM) and an MIC [3] of 250 µg/mL (≈ 478 µM). The MIC [4] was 250 µg/mL (≈ 478 µM), the MIC [5] was “inactive” and the MIC [6] was 250 µg/mL (≈ 478 µM). The MIC [7] was “inactive”, the MIC [8] was 250 µg/mL (≈ 478 µM) and the MIC [9] was “inactive”. It also gave an IC50 [10] of 0.21 µM, an MIC [11] of 250 µg/mL (≈ 478 µM) and an inhibition [12] of over 80%. For the same compound, the MIC [13] was 250 µg/mL (≈ 478 µM), the MIC [14] was 250 µg/mL (≈ 478 µM) and the MIC [15] was “inactive”. The MIC [16] was “inactive”, the MIC [17] was 250 µg/mL (≈ 478 µM) and the MIC [18] was 62.5 µg/mL (≈ 120 µM). The MIC [19] was 250 µg/mL (≈ 478 µM).
For `CC(=O)N1CCCC2(O)c3ccccc3N(C)C12` (configuration not stated), the MIC [1] was “inactive”, the MIC [2] was “inactive” and the MIC [3] was “inactive”. The MIC [4] was “inactive”, the MIC [5] was “inactive” and the MIC [6] was “inactive”. For the same compound, the MIC [7] was 250 µg/mL (≈ 1010 µM), the MIC [8] was “inactive” and the MIC [9] was “inactive”. For the same compound, the IC50 [10] was 1.22 µM, the MIC [11] was “inactive” and the MIC [13] was “inactive”. For the same compound, the MIC [14] was “inactive”, the MIC [15] was “inactive” and the MIC [16] was “inactive”. The MIC [17] was 250 µg/mL (≈ 1010 µM), the MIC [18] was “inactive” and the MIC [19] was 250 µg/mL (≈ 1010 µM).
With `COc1ccc(C(=O)N2CCC3(Cc4ccccc4C)c4ccccc4N(Cc4ccccc4C)C23)cc1` (configuration not stated) the MIC [1] was 250 µg/mL (≈ 497 µM), the MIC [2] was 250 µg/mL (≈ 497 µM) and the MIC [3] was 250 µg/mL (≈ 497 µM). The MIC [4] was “inactive”, the MIC [5] was “inactive” and the MIC [6] was “inactive”. For the same compound, the MIC [7] was “inactive”, the MIC [8] was “inactive” and the MIC [9] was “inactive”. For the same compound, the IC50 [10] was 126 µM, the MIC [11] was “inactive” and the MIC [13] was 250 µg/mL (≈ 497 µM). The MIC [14] was “inactive”, the MIC [15] was “inactive” and the MIC [16] was “inactive”. The MIC [17] was “inactive”, the MIC [18] was 250 µg/mL (≈ 497 µM) and the MIC [19] was “inactive”.
For `Cc1cccc(CN2c3ccccc3C3(Cc4cccc(C)c4)CCN(C(=O)c4ccccc4)C23)c1` (configuration not stated), the MIC [1] was 250 µg/mL (≈ 529 µM), the MIC [2] was 250 µg/mL (≈ 529 µM) and the MIC [3] was 62.5 µg/mL (≈ 132 µM). For the same compound, the MIC [4] was “inactive”, the MIC [5] was “inactive” and the MIC [6] was “inactive”. For the same compound, the MIC [7] was “inactive”, the MIC [8] was 250 µg/mL (≈ 529 µM) and the MIC [9] was 250 µg/mL (≈ 529 µM). It also gave an IC50 [10] of 45.1 µM, an MIC [11] of 62.5 µg/mL (≈ 132 µM) and an MIC [13] of 250 µg/mL (≈ 529 µM). For the same compound, the MIC [14] was “inactive”, the MIC [15] was “inactive” and the MIC [16] was “inactive”. For the same compound, the MIC [17] was “inactive”, the MIC [18] was 31.2 µg/mL (≈ 66.1 µM) and the MIC [19] was “inactive”.
With `Cc1ccccc1CN1c2ccccc2C2(Cc3ccccc3C)CCN(C(=O)COc3ccccc3)C12` (configuration not stated) the MIC [1] was 250 µg/mL (≈ 497 µM), the MIC [2] was 250 µg/mL (≈ 497 µM) and the MIC [3] was 250 µg/mL (≈ 497 µM). The MIC [4] was 250 µg/mL (≈ 497 µM), the MIC [5] was “inactive” and the MIC [6] was 250 µg/mL (≈ 497 µM). For the same compound, the MIC [7] was “inactive”, the MIC [8] was 250 µg/mL (≈ 497 µM) and the MIC [9] was 125 µg/mL (≈ 249 µM). The IC50 [10] was 787 µM, the MIC [11] was “inactive” and the MIC [13] was 250 µg/mL (≈ 497 µM). For the same compound, the MIC [14] was “inactive”, the MIC [15] was “inactive” and the MIC [16] was 250 µg/mL (≈ 497 µM). For the same compound, the MIC [17] was “inactive”, the MIC [18] was 250 µg/mL (≈ 497 µM) and the MIC [19] was “inactive”.
`CN1c2ccccc2C2(O)CCCN(C(=O)c3cccc(F)c3)C12` (configuration not stated) was tested, and the MIC [1] was “inactive”, the MIC [2] was “inactive” and the MIC [3] was “inactive”. For the same compound, the MIC [4] was “inactive”, the MIC [5] was “inactive” and the MIC [6] was “inactive”. The MIC [7] was 250 µg/mL (≈ 766 µM), the MIC [8] was “inactive” and the MIC [9] was “inactive”. For the same compound, the IC50 [10] was 0.337 µM, the MIC [11] was “inactive” and the MIC [13] was “inactive”. The MIC [14] was 250 µg/mL (≈ 766 µM), the MIC [15] was “inactive” and the MIC [16] was “inactive”. For the same compound, the MIC [17] was “inactive”, the MIC [18] was 250 µg/mL (≈ 766 µM) and the MIC [19] was 250 µg/mL (≈ 766 µM).
With `CCCC(=O)N1CCCC2(O)c3ccccc3N(C)C12` (configuration not stated) the MIC [1] was “inactive”, the MIC [2] was “inactive” and the MIC [3] was “inactive”. For the same compound, the MIC [4] was “inactive”, the MIC [5] was “inactive” and the MIC [6] was “inactive”. For the same compound, the MIC [7] was 250 µg/mL (≈ 911 µM), the MIC [8] was “inactive” and the MIC [9] was “inactive”. The IC50 [10] was 122 µM, the MIC [11] was “inactive” and the MIC [13] was “inactive”. For the same compound, the MIC [14] was “inactive”, the MIC [15] was “inactive” and the MIC [16] was “inactive”. The MIC [17] was “inactive”, the MIC [18] was 250 µg/mL (≈ 911 µM) and the MIC [19] was 31.2 µg/mL (≈ 114 µM).
